In US9708314B2, “Heterocyclic amide compound” (NISSAN CHEMICAL INDUSTRIES, LTD., priority 2013, dated 2017):

Key:
Assay type in all cases: in vivo
[1] = system: Echinochloa crus-galli var. crus-galli; assay: Test Example 4: herbicidal effect by application to foliage (diluvial soil, plastic box); settings: application to foliage, application herbicide amount 320 g/ha
Method in brief: (§1)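 Greenhouse plants (25° C. to 30° C., 14 d, diluvial soil) receive a foliar spray of water-diluted emulsifiable formulation at defined g/ha. Grading after 3 weeks uses a six-step herbicidal-ratio scale, with 4 covering 70% to <90% and 1 covering 5% to <20%.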

[2] = system: Lolium multiflorum Lam.; assay: as above; settings: application to foliage, application herbicide amount 320 g/ha
Method in brief: as §1

[3] = system: Apera spica-venti.; assay: as above; settings: application to foliage, application herbicide amount 320 g/ha
Method in brief: as §1

[4] = system: Chenopodium album; assay: as above; settings: application to foliage, application herbicide amount 320 g/ha
Method in brief: as §1

[5] = system: Avena fatua; assay: as above; settings: application to foliage, application herbicide amount 320 g/ha
Method in brief: as §1

[6] = system: Alopecurus myosuroides; assay: as above; settings: application to foliage, application herbicide amount 320 g/ha
Method in brief: as §1

[7] = system: Galium spurium; assay: as above; settings: application to foliage, application herbicide amount 320 g/ha
Method in brief: as §1

[8] = system: Abutilon theophrasti; assay: as above; settings: application to foliage, application herbicide amount 320 g/ha
Method in brief: as §1

[9] = system: Digitaria ciliaris; assay: as above; settings: application to foliage, application herbicide amount 320 g/ha
Method in brief: as §1

[10] = system: Veronica persica; assay: as above; settings: application to foliage, application herbicide amount 320 g/ha
Method in brief: as §1

[11] = system: Setaria viridis; assay: as above; settings: application to foliage, application herbicide amount 320 g/ha
Method in brief: as §1

[12] = system: Scirpus juncoides; assay: Test Example 2: herbicidal activity, application during weed generation in submerged conditions; settings: Eighteenth Table; application herbicide amount 320 g/ha
Source text: (§2) 5 Herbicidal ratio of 90% or more (almost completely withered) 4 Herbicidal ratio of 70% or more and less than 90% 3 Herbicidal ratio of 40% or more and less than 70% 2 Herbicidal ratio of 20% or more and less than 40% 1 Herbicidal ratio of 5% or more and less than 20% 0 Herbicidal ratio of 5% or less (almost no effect) [Test Example 2] Herbicidal Activity Test by Application During Weed Generation in Submerged Conditions After alluvial soil was placed into 1/10000 are of Wagner pot, water was poured and mixed to form a submerged condition having a water depth of 4 cm. Seeds of Echinochloa oryzacola Vasing., Scirpus juncoides, and Monochoria vaginalis were sowed in a mixed manner in the above pot and the pot was placed in the greenhouse of 25° C. to 30° C. to grow the plants. When Echinochloa oryzacola Vasing., Scirpus juncoides, and Monochoria vaginalis were grown to one leaf stage to two leaf stage, the emulsion agent containing the compound of the present invention prepared in accordance with Formulation Example 2 was diluted with water so as to be a predetermined herbicide amount and the diluted compound was applied to the surface of the water. Three weeks after the herbicide application, effects on each plant were investigated in accordance with the criteria of Test Example 1. A: Echinochloa oryzicola Vasing., B: Scirpus juncoides, C: Monochoria vaginalis, D: Leptochloa chinensis, E: Cyperus difformis, F: Digitaria ciliaris, G: Setaria viridis, H: Echinochloa crus-galli var. crus-galli, I: Avena fatua, J: Alopecurus myosuroides, K: Lolium multiflorum Lam., L: Apera spica-venti., M: Abutilon theophrasti, N: Amaranthus retroflexus, O: Chenopodium album, P: Stellaria media, Q: Galium spurium, R: Veronica persica, a: transplanted Oryza sativa, b: directly sowed Oryza sativa, c: Zea mays, d: Glycine max, e: Triticum aestivum, f: Beta vulgaris ssp. vulgaris, and g: Brassica campestris L. The application herbicide amount (g/ha) means an amount that a concentration is adjusted so that, when an application amount is converted into per hectare (1 ha), the herbicide is applied by the number of grams (g) of the described value.

[13] = system: Echinochloa oryzacola Vasing.; assay: as above; settings: Eighteenth Table; application herbicide amount 320 g/ha
Source text: as §2

[14] = system: Beta vulgaris ssp. vulgaris; assay: Test Example 4: effect on crop by application to foliage (diluvial soil, plastic box); settings: application to foliage, application herbicide amount 320 g/ha
Method in brief: as §1

[15] = system: Zea mays; assay: as above; settings: application to foliage, application herbicide amount 320 g/ha
Method in brief: as §1

[16] = system: Brassica campestris L.; assay: as above; settings: application to foliage, application herbicide amount 320 g/ha
Method in brief: as §1

[17] = system: Glycine max; assay: as above; settings: application to foliage, application herbicide amount 320 g/ha
Method in brief: as §1

[18] = system: Triticum aestivum; assay: as above; settings: application to foliage, application herbicide amount 320 g/ha
Method in brief: as §1

[19] = system: directly sowed Oryza sativa; assay: as above; settings: application to foliage, application herbicide amount 320 g/ha
Method in brief: as §1

Row | Structure (SMILES) | H (Echinochloa crus-galli var. crus-galli) herbicidal effect [1] | K (Lolium multiflorum Lam.) herbicidal effect [2] | L (Apera spica-venti.) herbicidal effect [3] | O (Chenopodium album) herbicidal effect [4] | I (Avena fatua) herbicidal effect [5] | J (Alopecurus myosuroides) herbicidal effect [6] | Q (Galium spurium) herbicidal effect [7] | M (Abutilon theophrasti) herbicidal effect [8] | F (Digitaria ciliaris) herbicidal effect [9] | R (Veronica persica) herbicidal effect [10] | G (Setaria viridis) herbicidal effect [11] | B (Scirpus juncoides) herbicidal ratio grade [12] | A (Echinochloa oryzicola Vasing.) herbicidal ratio grade [13] | f (Beta vulgaris ssp. vulgaris) effect on crop [14] | b (Zea mays) effect on crop [15] | g (Brassica campestris L.) effect on crop [16] | c (Glycine max) effect on crop [17] | e (Triticum aestivum) effect on crop [18] | d (directly sowed Oryza sativa) effect on crop [19]
1 | Cc1nnc(NC(=O)c2ccc(C(F)(F)F)n3c(S(C)(=O)=O)nnc23)o1 [1-040] | 4 (Herbicidal ratio of 70% or more and less than 90%) | 3 (Herbicidal ratio of 40% or more and less than 70%) | 4 (Herbicidal ratio of 70% or more and less than 90%) | 5 (Herbicidal ratio of 90% or more (almost completely withered)) | 3 (Herbicidal ratio of 40% or more and less than 70%) | 3 (Herbicidal ratio of 40% or more and less than 70%) | 3 (Herbicidal ratio of 40% or more and less than 70%) | 5 (Herbicidal ratio of 90% or more (almost completely withered)) | 5 (Herbicidal ratio of 90% or more (almost completely withered)) | 5 (Herbicidal ratio of 90% or more (almost completely withered)) | 4 (Herbicidal ratio of 70% or more and less than 90%) | 2 (Herbicidal ratio of 20% or more and less than 40%) | 3 (Herbicidal ratio of 40% or more and less than 70%) | 5 (Herbicidal ratio of 90% or more (almost completely withered)) | 0 (Herbicidal ratio of 5% or less (almost no effect)) | 1 (Herbicidal ratio of 5% or more and less than 20%) | 0 (Herbicidal ratio of 5% or less (almost no effect)) | 3 (Herbicidal ratio of 40% or more and less than 70%) | 1 (Herbicidal ratio of 5% or more and less than 20%)
2 | COc1cccc(-c2nnc3c(C(=O)Nc4nnc(C)o4)ccc(C(F)(F)F)n23)c1 [1-046] | 5 (Herbicidal ratio of 90% or more (almost completely withered)) | 0 (Herbicidal ratio of 5% or less (almost no effect)) | 1 (Herbicidal ratio of 5% or more and less than 20%) | 5 (Herbicidal ratio of 90% or more (almost completely withered)) | 1 (Herbicidal ratio of 5% or more and less than 20%) | 0 (Herbicidal ratio of 5% or less (almost no effect)) | 2 (Herbicidal ratio of 20% or more and less than 40%) | 5 (Herbicidal ratio of 90% or more (almost completely withered)) | 5 (Herbicidal ratio of 90% or more (almost completely withered)) | 4 (Herbicidal ratio of 70% or more and less than 90%) | 5 (Herbicidal ratio of 90% or more (almost completely withered)) | – | 4 (Herbicidal ratio of 70% or more and less than 90%) | 5 (Herbicidal ratio of 90% or more (almost completely withered)) | 1 (Herbicidal ratio of 5% or more and less than 20%) | 4 (Herbicidal ratio of 70% or more and less than 90%) | 2 (Herbicidal ratio of 20% or more and less than 40%) | 0 (Herbicidal ratio of 5% or less (almost no effect)) | 3 (Herbicidal ratio of 40% or more and less than 70%)
3 | Cc1nnc(NC(=O)c2ccc(C(F)(F)F)n3c(CS(C)(=O)=O)nnc23)o1 [1-037] | 4 (Herbicidal ratio of 70% or more and less than 90%) | 2 (Herbicidal ratio of 20% or more and less than 40%) | 3 (Herbicidal ratio of 40% or more and less than 70%) | 5 (Herbicidal ratio of 90% or more (almost completely withered)) | 3 (Herbicidal ratio of 40% or more and less than 70%) | 2 (Herbicidal ratio of 20% or more and less than 40%) | 4 (Herbicidal ratio of 70% or more and less than 90%) | 5 (Herbicidal ratio of 90% or more (almost completely withered)) | 5 (Herbicidal ratio of 90% or more (almost completely withered)) | 5 (Herbicidal ratio of 90% or more (almost completely withered)) | 4 (Herbicidal ratio of 70% or more and less than 90%) | 2 (Herbicidal ratio of 20% or more and less than 40%) | 2 (Herbicidal ratio of 20% or more and less than 40%) | 5 (Herbicidal ratio of 90% or more (almost completely withered)) | 0 (Herbicidal ratio of 5% or less (almost no effect)) | 4 (Herbicidal ratio of 70% or more and less than 90%) | 1 (Herbicidal ratio of 5% or more and less than 20%) | 3 (Herbicidal ratio of 40% or more and less than 70%) | 3 (Herbicidal ratio of 40% or more and less than 70%)
4 | CCS(=O)(=O)c1nnc2c(C(=O)Nc3nnc(C)o3)ccc(C(F)(F)F)n12 [1-041] | 5 (Herbicidal ratio of 90% or more (almost completely withered)) | 2 (Herbicidal ratio of 20% or more and less than 40%) | 4 (Herbicidal ratio of 70% or more and less than 90%) | 5 (Herbicidal ratio of 90% or more (almost completely withered)) | 3 (Herbicidal ratio of 40% or more and less than 70%) | 1 (Herbicidal ratio of 5% or more and less than 20%) | 3 (Herbicidal ratio of 40% or more and less than 70%) | 5 (Herbicidal ratio of 90% or more (almost completely withered)) | 5 (Herbicidal ratio of 90% or more (almost completely withered)) | 4 (Herbicidal ratio of 70% or more and less than 90%) | 4 (Herbicidal ratio of 70% or more and less than 90%) | 3 (Herbicidal ratio of 40% or more and less than 70%) | 2 (Herbicidal ratio of 20% or more and less than 40%) | 5 (Herbicidal ratio of 90% or more (almost completely withered)) | 0 (Herbicidal ratio of 5% or less (almost no effect)) | 0 (Herbicidal ratio of 5% or less (almost no effect)) | 0 (Herbicidal ratio of 5% or less (almost no effect)) | 3 (Herbicidal ratio of 40% or more and less than 70%) | 2 (Herbicidal ratio of 20% or more and less than 40%)
